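Test compounds were applied to cells in 96-well plates for 48 hours at 5 doses. TGI is the concentration that stops growth completely.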
Key:
Test in all cases: NCI-60 cell line screen, 48 h
HS 578T breast = system: HS 578T breast
HT29 colon = system: HT29 colon
SNB-19 CNS = system: SNB-19 CNS
OVCAR-4 ovarian = system: OVCAR-4 ovarian
SF-295 CNS = system: SF-295 CNS
CAKI-1 renal = system: CAKI-1 renal
RPMI-8226 leukemia = system: RPMI-8226 leukemia
PC-3 prostate = system: PC-3 prostate
HCT-15 colon = system: HCT-15 colon
786-0 renal = system: 786-0 renal
SN12C renal = system: SN12C renal
CCRF-CEM leukemia = system: CCRF-CEM leukemia
OVCAR-3 ovarian = system: OVCAR-3 ovarian
OVCAR-5 ovarian = system: OVCAR-5 ovarian
ACHN renal = system: ACHN renal
HCT-116 colon = system: HCT-116 colon
NCI-H460 lung = system: NCI-H460 lung
LOX IMVI melanoma = system: LOX IMVI melanoma
EKVX NSCLC = system: EKVX NSCLC
T-47D breast = system: T-47D breast
SK-OV-3 ovarian = system: SK-OV-3 ovarian
UACC-257 melanoma = system: UACC-257 melanoma
NCI/ADR-RES ovarian = system: NCI/ADR-RES ovarian
HL-60(TB) leukemia = system: HL-60(TB) leukemia
K-562 leukemia = system: K-562 leukemia
NCI-H23 lung = system: NCI-H23 lung
KM12 colon = system: KM12 colon
SF-539 CNS = system: SF-539 CNS
MCF7 breast = system: MCF7 breast
SW-620 colon = system: SW-620 colon
A549 NSCLC = system: A549 NSCLC
MDA-N = system: MDA-N
MDA-MB-435 = system: MDA-MB-435
DU-145 prostate = system: DU-145 prostate
MDA-MB-231 breast = system: MDA-MB-231 breast
HCC-2998 colon = system: HCC-2998 colon
NCI-H226 lung = system: NCI-H226 lung
RXF 393 renal = system: RXF 393 renal
M14 melanoma = system: M14 melanoma
NCI-H522 lung = system: NCI-H522 lung
A498 renal = system: A498 renal
UACC-62 melanoma = system: UACC-62 melanoma
MALME-3M melanoma = system: MALME-3M melanoma
BT-549 breast = system: BT-549 breast
IGROV1 ovarian = system: IGROV1 ovarian
SK-MEL-28 melanoma = system: SK-MEL-28 melanoma
U251 CNS = system: U251 CNS
HOP-62 NSCLC = system: HOP-62 NSCLC
MOLT-4 leukemia = system: MOLT-4 leukemia
SNB-75 CNS = system: SNB-75 CNS
UO-31 renal = system: UO-31 renal
OVCAR-8 ovarian = system: OVCAR-8 ovarian
COLO 205 colon = system: COLO 205 colon
SK-MEL-2 melanoma = system: SK-MEL-2 melanoma
HOP-92 NSCLC = system: HOP-92 NSCLC
TK-10 renal = system: TK-10 renal
SK-MEL-5 melanoma = system: SK-MEL-5 melanoma
SR leukemia = system: SR leukemia
SF-268 CNS = system: SF-268 CNS

Q: With CC(C)(C)OC(=O)C1=C2C=C(O)C=CC2(C)N(Cc2ccccc2)C1=N (centres undefined) as the compound, how does the TGI (HS 578T breast) read?
A: > 91.6 µM

Q: And the TGI (HT29 colon)?
A: 14 µM

Q: What about the TGI (SNB-19 CNS) of the same compound?
A: 33.8 µM

Q: What about the TGI (OVCAR-4 ovarian) of the same compound?
A: 19.1 µM

Q: And the TGI (SF-295 CNS)?
A: 28.2 µM

Q: And the TGI (CAKI-1 renal)?
A: 4.19 µM

Q: What about the TGI (RPMI-8226 leukemia) of the same compound?
A: > 27.1 µM

Q: What about the TGI (PC-3 prostate) of the same compound?
A: 19.8 µM

Q: And the TGI (HCT-15 colon)?
A: 14.9 µM

Q: What about the TGI (786-0 renal) of the same compound?
A: 12.7 µM

Q: And the TGI (SN12C renal)?
A: 25.5 µM

Q: What about the TGI (CCRF-CEM leukemia) of the same compound?
A: > 38.2 µM

Q: What about the TGI (OVCAR-3 ovarian) of the same compound?
A: 13.8 µM

Q: What about the TGI (OVCAR-5 ovarian) of the same compound?
A: 33.1 µM

Q: What about the TGI (ACHN renal) of the same compound?
A: 5.56 µM

Q: What about the TGI (HCT-116 colon) of the same compound?
A: 9.83 µM

Q: What about the TGI (NCI-H460 lung) of the same compound?
A: 34.7 µM

Q: What about the TGI (LOX IMVI melanoma) of the same compound?
A: 8.44 µM

Q: What about the TGI (EKVX NSCLC) of the same compound?
A: 11.5 µM

Q: What about the TGI (T-47D breast) of the same compound?
A: 10.2 µM

Q: And the TGI (SK-OV-3 ovarian)?
A: 42.1 µM

Q: And the TGI (UACC-257 melanoma)?
A: 18.7 µM

Q: What about the TGI (NCI/ADR-RES ovarian) of the same compound?
A: > 82.8 µM

Q: What about the TGI (HL-60(TB) leukemia) of the same compound?
A: 6.35 µM

Q: What about the TGI (K-562 leukemia) of the same compound?
A: > 32.9 µM

Q: And the TGI (NCI-H23 lung)?
A: 31.2 µM

Q: What about the TGI (KM12 colon) of the same compound?
A: 23.1 µM

Q: And the TGI (SF-539 CNS)?
A: 12.7 µM

Q: What about the TGI (MCF7 breast) of the same compound?
A: 9.99 µM

Q: What about the TGI (SW-620 colon) of the same compound?
A: 5.69 µM

Q: What about the TGI (A549 NSCLC) of the same compound?
A: 28.1 µM

Q: What about the TGI (MDA-N) of the same compound?
A: 20.2 µM

Q: What about the TGI (MDA-MB-435) of the same compound?
A: 21.5 µM

Q: What about the TGI (DU-145 prostate) of the same compound?
A: 12.8 µM

Q: And the TGI (MDA-MB-231 breast)?
A: 21.6 µM

Q: What about the TGI (HCC-2998 colon) of the same compound?
A: 29.3 µM

Q: What about the TGI (NCI-H226 lung) of the same compound?
A: 28.6 µM

Q: And the TGI (RXF 393 renal)?
A: 6.96 µM

Q: And the TGI (M14 melanoma)?
A: 10.4 µM

Q: And the TGI (NCI-H522 lung)?
A: 4 µM

Q: What about the TGI (A498 renal) of the same compound?
A: 26.2 µM

Q: And the TGI (UACC-62 melanoma)?
A: 29 µM

Q: What about the TGI (MALME-3M melanoma) of the same compound?
A: 10.9 µM

Q: And the TGI (BT-549 breast)?
A: 4.58 µM

Q: What about the TGI (IGROV1 ovarian) of the same compound?
A: 16.6 µM

Q: And the TGI (SK-MEL-28 melanoma)?
A: 24.8 µM

Q: What about the TGI (U251 CNS) of the same compound?
A: 43.3 µM

Q: What about the TGI (HOP-62 NSCLC) of the same compound?
A: 30.7 µM

Q: What about the TGI (MOLT-4 leukemia) of the same compound?
A: > 32.7 µM

Q: And the TGI (SNB-75 CNS)?
A: > 56.7 µM

Q: And the TGI (UO-31 renal)?
A: 10.7 µM

Q: What about the TGI (OVCAR-8 ovarian) of the same compound?
A: 10.6 µM

Q: And the TGI (COLO 205 colon)?
A: 6.24 µM

Q: What about the TGI (SK-MEL-2 melanoma) of the same compound?
A: 33.1 µM

Q: And the TGI (HOP-92 NSCLC)?
A: 5.91 µM

Q: What about the TGI (TK-10 renal) of the same compound?
A: 10.2 µM

Q: What about the TGI (SK-MEL-5 melanoma) of the same compound?
A: 15.9 µM

Q: With O=C(CCCl)NNC1=NCCCCN1 as the compound, how does the TGI (HS 578T breast) read?
A: > 100 µM

Q: And the TGI (HT29 colon)?
A: > 100 µM

Q: What about the TGI (SNB-19 CNS) of the same compound?
A: > 100 µM

Q: And the TGI (OVCAR-4 ovarian)?
A: > 100 µM

Q: And the TGI (SF-295 CNS)?
A: > 100 µM

Q: What about the TGI (RPMI-8226 leukemia) of the same compound?
A: > 100 µM

Q: And the TGI (PC-3 prostate)?
A: > 100 µM

Q: What about the TGI (HCT-15 colon) of the same compound?
A: > 100 µM

Q: What about the TGI (786-0 renal) of the same compound?
A: > 100 µM

Q: What about the TGI (SN12C renal) of the same compound?
A: > 100 µM

Q: And the TGI (CCRF-CEM leukemia)?
A: > 100 µM

Q: And the TGI (OVCAR-3 ovarian)?
A: > 100 µM

Q: What about the TGI (OVCAR-5 ovarian) of the same compound?
A: > 100 µM

Q: And the TGI (ACHN renal)?
A: > 100 µM

Q: And the TGI (HCT-116 colon)?
A: > 100 µM

Q: What about the TGI (NCI-H460 lung) of the same compound?
A: > 100 µM

Q: What about the TGI (LOX IMVI melanoma) of the same compound?
A: > 100 µM

Q: And the TGI (EKVX NSCLC)?
A: > 100 µM

Q: What about the TGI (T-47D breast) of the same compound?
A: > 100 µM

Q: What about the TGI (SK-OV-3 ovarian) of the same compound?
A: > 100 µM

Q: And the TGI (UACC-257 melanoma)?
A: > 100 µM

Q: What about the TGI (NCI/ADR-RES ovarian) of the same compound?
A: > 100 µM

Q: What about the TGI (HL-60(TB) leukemia) of the same compound?
A: > 100 µM

Q: What about the TGI (K-562 leukemia) of the same compound?
A: > 100 µM

Q: And the TGI (NCI-H23 lung)?
A: > 100 µM

Q: What about the TGI (KM12 colon) of the same compound?
A: > 100 µM

Q: And the TGI (SF-539 CNS)?
A: > 100 µM

Q: And the TGI (MCF7 breast)?
A: > 100 µM

Q: What about the TGI (SW-620 colon) of the same compound?
A: > 100 µM

Q: What about the TGI (A549 NSCLC) of the same compound?
A: > 100 µM

Q: And the TGI (MDA-N)?
A: > 100 µM

Q: And the TGI (MDA-MB-435)?
A: > 100 µM

Q: And the TGI (DU-145 prostate)?
A: > 100 µM

Q: And the TGI (MDA-MB-231 breast)?
A: > 100 µM

Q: What about the TGI (HCC-2998 colon) of the same compound?
A: > 100 µM

Q: And the TGI (NCI-H226 lung)?
A: > 100 µM

Q: What about the TGI (RXF 393 renal) of the same compound?
A: > 100 µM

Q: What about the TGI (M14 melanoma) of the same compound?
A: > 100 µM

Q: What about the TGI (SR leukemia) of the same compound?
A: > 100 µM

Q: And the TGI (NCI-H522 lung)?
A: > 100 µM

Q: What about the TGI (UACC-62 melanoma) of the same compound?
A: > 100 µM

Q: And the TGI (SF-268 CNS)?
A: > 100 µM

Q: And the TGI (MALME-3M melanoma)?
A: > 100 µM

Q: And the TGI (BT-549 breast)?
A: > 100 µM

Q: What about the TGI (IGROV1 ovarian) of the same compound?
A: > 100 µM

Q: And the TGI (SK-MEL-28 melanoma)?
A: > 100 µM

Q: What about the TGI (U251 CNS) of the same compound?
A: > 100 µM

Q: What about the TGI (HOP-62 NSCLC) of the same compound?
A: > 100 µM

Q: What about the TGI (MOLT-4 leukemia) of the same compound?
A: > 100 µM

Q: What about the TGI (SNB-75 CNS) of the same compound?
A: > 100 µM

Q: What about the TGI (UO-31 renal) of the same compound?
A: > 100 µM

Q: And the TGI (OVCAR-8 ovarian)?
A: > 100 µM

Q: And the TGI (COLO 205 colon)?
A: > 100 µM

Q: What about the TGI (SK-MEL-2 melanoma) of the same compound?
A: > 100 µM

Q: What about the TGI (HOP-92 NSCLC) of the same compound?
A: > 100 µM

Q: And the TGI (TK-10 renal)?
A: > 100 µM

Q: And the TGI (SK-MEL-5 melanoma)?
A: > 100 µM

Reference: PubChem BioAssay (NCI)
